The test deals with human plasma kallikrein (Homo sapiens, UniProt P03952). The test can be described thus: Kallikrein inhibition FLINT assay with quenched AMC peptide substrate Z-Gly-Pro-Arg-AMC (end point EP or kinetic KIN reads). Type of test: biochemical. Conditions: kinetic reads at 5 min intervals over 30 min; read-out: Kallikrein (KIN) IC50. Summed up:
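Enzyme and compound were preincubated 30 min before adding 50 μM AMC substrate in pH 7.5 Tris/NaCl/CaCl2/BSA/CHAPS buffer. AMC release was read at 30 min endpoint or every 5 min.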

The structures appear in SMILES notation.

Chain of human plasma kallikrein (P03952 391-638 limits assumed): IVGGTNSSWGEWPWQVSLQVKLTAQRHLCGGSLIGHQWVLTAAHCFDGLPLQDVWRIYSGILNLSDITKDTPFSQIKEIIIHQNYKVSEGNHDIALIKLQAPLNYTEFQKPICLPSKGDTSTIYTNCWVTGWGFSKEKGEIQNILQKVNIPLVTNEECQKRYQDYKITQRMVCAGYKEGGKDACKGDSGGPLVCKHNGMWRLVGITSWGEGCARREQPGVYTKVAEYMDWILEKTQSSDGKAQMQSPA
Chain of human plasma kallikrein (P03952 20-390 partner limits assumed): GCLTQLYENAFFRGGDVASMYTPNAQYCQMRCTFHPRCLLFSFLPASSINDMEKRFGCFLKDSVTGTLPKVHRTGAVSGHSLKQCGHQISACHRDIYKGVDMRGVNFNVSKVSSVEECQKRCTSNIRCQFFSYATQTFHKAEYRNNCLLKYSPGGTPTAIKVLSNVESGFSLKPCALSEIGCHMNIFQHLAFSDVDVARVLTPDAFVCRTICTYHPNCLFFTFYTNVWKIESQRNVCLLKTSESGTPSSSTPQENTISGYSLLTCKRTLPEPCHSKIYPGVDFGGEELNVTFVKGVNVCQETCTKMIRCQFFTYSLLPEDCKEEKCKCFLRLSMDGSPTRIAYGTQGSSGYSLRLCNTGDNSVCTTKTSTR

On to `COC(=O)Nc1ccc(-c2cnn(C(Cn3ccccc3=O)c3ccc(-c4c(-n5cnnn5)ccc(Cl)c4F)c[n+]3[O-])c2)cc1` (stereo not shown) [Example P305], for which the IC50 was found to be 5.5 nM. With `Cc1ncn(-c2cnn([C@H](CCOC(F)F)c3ccc(-c4c(-n5cc(C(F)(F)F)nn5)ccc(Cl)c4F)c[n+]3[O-])c2)n1` [Example P823], the IC50 stood at 566 nM. In the case of `COc1cc(C(CC2CC2)n2cc(-c3ncnn3C(F)F)cn2)[n+]([O-])cc1-c1cc(Cl)ccc1-n1cnnn1` (single isomer, unassigned) [Example P917] it was 3.9 nM; in that of `[O-][n+]1cc(-c2c(-n3cnnn3)ccc(Cl)c2F)ccc1C(Cn1ccc(C2CCOCC2)n1)n1cc(-c2ccnc(C(F)(F)F)c2)cn1` (stereo not shown) [Example P419], 36.3 nM. `Cn1ncnc1-c1cnn(C(Cc2nnco2)c2ccc(-c3c(-n4cc(C(F)(F)F)nn4)ccc(Cl)c3F)c[n+]2[O-])c1` (stereo not shown) [Example P935]: the IC50 stood at 487 nM.

Turning to `[O-][n+]1cc(-c2c(-n3cnnn3)ccc(Cl)c2F)ccc1C(CC1CC1)n1cc(-c2cnn(C(F)(F)F)c2)cn1` (stereo not shown) [Example P708], the IC50 was found to be 658 nM. With `COC(=O)Nc1ccc(-c2cnn(C(Cc3ccn(C)n3)c3ccc(-c4c(-n5cnnn5)ccc(Cl)c4F)c[n+]3[O-])c2)cc1` (single isomer, unassigned) [Example P328], the concentration for half-maximal inhibition (IC50) was 0.4 nM. In the case of `COC(=O)Nc1ccc(-c2cnn(C(Cc3ccn(C)n3)c3ccc(-c4c(-n5cnnn5)ccc(Cl)c4F)c[n+]3[O-])c2)cc1` (single isomer, unassigned) [Example P330] it was 3.3 nM; in that of `[O-][n+]1cc(-c2c(-n3cnnn3)ccc(Cl)c2F)ccc1C(C(O)c1ccccc1)n1cc(-c2ccnn2C(F)F)cn1` (single isomer, unassigned) [Example P713], 29.9 nM. With `Nc1ccc(-c2cnn(C(Cn3cc(F)cn3)c3ccc(-c4c(-n5cnnn5)ccc(Cl)c4F)c[n+]3[O-])c2)c(F)n1` (stereo not shown) [Example P281], the 50% inhibitory concentration (IC50) was 2.6 nM. In the case of `N#Cc1cnn(C(F)F)c1-c1cnn(C(CC2CC2)c2ccc(-c3c(-n4cnnn4)ccc(Cl)c3F)c[n+]2[O-])c1` (single isomer, unassigned) [Example P663] it was 933 nM; in that of `CCC(c1cc(OC)c(-c2cc(Cl)ccc2-n2cc(C(F)(F)F)nn2)c[n+]1[O-])n1cc(-c2ccc(C(N)=O)c(F)c2)cn1` (single isomer, unassigned) [Example P877], 220 nM. For the molecule `Cn1nncc1-c1cnn([C@H](CCOC(F)F)c2ccc(-c3c(-n4cc(C(F)(F)F)nn4)ccc(Cl)c3F)c[n+]2[O-])c1` [Example P761], the IC50 was determined as 41.6 nM. In the case of `NC(=O)c1ccc(-c2cnn([C@H](CCOC(F)F)c3ccc(-c4cc(Cl)ccc4-n4cc(C(F)(F)F)nn4)c[n+]3[O-])c2)cc1F` [Example P859] it was 28.7 nM; in that of `O=C(NC1CC1)c1ccc(-c2cnn(C(Cc3ccc(F)cc3)c3ccc(-c4c(-n5cnnn5)ccc(Cl)c4F)c[n+]3[O-])c2)cc1` (stereo not shown) [Example P125], 3.3 nM; in that of `[O-][n+]1cc(-c2c(-n3cnnn3)ccc(Cl)c2F)ccc1[C@@H](Cc1ccc(C(F)F)cc1)n1cc(-c2cnnn2C(F)F)cn1` [Example P731], 64.9 nM. In the case of `CC(=O)N(C)CC(c1ccc(-c2c(-n3cnnn3)ccc(Cl)c2F)c[n+]1[O-])n1cc(-c2ccnc(C(F)(F)F)c2)cn1` (single isomer, unassigned) [Example P404] it was 68.4 nM; in that of `COC(=O)Nc1ccc(-c2cnn(C(Cc3ccn(C)n3)c3ccc(-c4c(-n5cnnn5)ccc(Cl)c4F)c[n+]3[O-])c2)cc1` (single isomer, unassigned) [Example P329], 49.6 nM; in that of `NC(=O)C1CC1CC(c1ccc(-c2c(-n3cnnn3)ccc(Cl)c2F)c[n+]1[O-])n1cc(-c2ccc(N)nc2F)cn1` (single isomer, unassigned) [Example P341], 320 nM.

For the molecule `COC(=O)Nc1ccc(-c2cnn(C(Cc3cccc(OC)c3)c3ccc(-c4c(-n5cnnn5)ccc(Cl)c4F)c[n+]3[O-])c2)cc1` (single isomer, unassigned) [Example P206], the IC50 was found to be 137 nM. For `Cn1ncnc1-c1cnn(C(CCOC(F)F)c2ccc(-c3c(N)ccc(Cl)c3F)c[n+]2[O-])c1` (stereo not shown) [Example Q45], the IC50 is 231 nM.

`Cc1cc(-c2cnn(C(Cn3cc(F)cn3)c3ccc(-c4c(-n5cnnn5)ccc(Cl)c4F)c[n+]3[O-])c2)cc[n+]1[O-]` (stereo not shown) [Example P472]: the IC50 amounted to 40.7 nM. With `Cn1ccc(C[C@H](c2ccc(-c3c(-n4cc(C(F)(F)F)nn4)ccc(Cl)c3F)c[n+]2[O-])n2cc(-c3ccc(C(=O)O)cc3)cn2)n1` [Example P855], the 50% inhibitory concentration (IC50) is 3.7 nM. In the case of `[O-][n+]1cc(-c2c(-n3cnnn3)ccc(Cl)c2F)ccc1[C@@H](Cc1ccc(F)cc1)n1cc(-c2cn(C(F)F)nn2)cn1` [Example P600] it was 43.8 nM. In the case of `[O-][n+]1cc(-c2c(-n3cnnn3)ccc(Cl)c2F)ccc1C(CCOC(F)F)n1cc(-c2ccncn2)cn1` (stereo not shown) [Example P367] it was 43.9 nM; in that of `NC(=O)c1scc(-c2cnn(C(CC3CC3)c3ccc(-c4c(-n5cnnn5)ccc(Cl)c4F)c[n+]3[O-])c2)c1F` (single isomer, unassigned) [Example P953], 13.4 nM. Turning to `Nc1ccc(-c2cnn(C(Cn3cc(F)cn3)c3ccc(-c4c(-n5cnnn5)ccc(Cl)c4F)c[n+]3[O-])c2)c(F)n1` (single isomer, unassigned) [Example P417], the IC50 turned out to be 77.1 nM. As for `[O-][n+]1ccc(-c2cnn(C(Cc3ccc(F)cc3)c3ccc(-c4c(OC(F)F)ccc(Cl)c4F)c[n+]3[O-])c2)cc1` (single isomer, unassigned) [Example Q19], the IC50 was found to be 48.4 nM. In the case of `[O-][n+]1cc(-c2c(-n3cnnn3)ccc(Cl)c2F)ccc1[C@@H](CC1CC1)n1cc(-c2ncnn2C(F)F)cn1` [Example P762] it was 249 nM; in that of `[O-][n+]1cc(-c2c(-n3cnnn3)ccc(Cl)c2F)ccc1C(Cc1nn(CC(F)(F)F)cc1F)n1cc(-c2ccnc(C(F)(F)F)c2)cn1` (stereo not shown) [Example P741], 22.1 nM. In the case of `Cn1ncc(F)c1-c1cnn([C@H](CCOC(F)F)c2ccc(-c3c(-n4cc(Cl)nn4)ccc(Cl)c3F)c[n+]2[O-])c1` [Example P680] it was 29 nM; in that of `[O-][n+]1cc(-c2c(-n3cnnn3)ccc(Cl)c2F)ccc1C(CC1CC1)n1cc(-c2ccc3c(c2)OCCO3)cn1` (stereo not shown) [Example P271], 252 nM. In the case of `Cn1ncc(Cl)c1-c1cnn(C(CC2CC2)c2ccc(-c3c(-n4cnnn4)ccc(Cl)c3F)c[n+]2[O-])c1` (stereo not shown) [Example P555] it was 573 nM; in that of `O=C(O)c1ccc(-c2cnn(C(Cc3ccn(C(F)F)n3)c3ccc(-c4c(-n5cc(C(F)(F)F)nn5)ccc(Cl)c4F)c[n+]3[O-])c2)cc1` (single isomer, unassigned) [Example P900], 2.2 nM; in that of `[2H]C([2H])(CC(c1ccc(-c2cc(Cl)ccc2C#N)c[n+]1[O-])n1cc(-c2ncnn2C(F)F)cn1)OC(F)F` (single isomer, unassigned) [Example Q53], 222 nM.

As to `NC(=O)c1ccc(-c2cnn(C(Cc3ccn(C(F)F)n3)c3ccc(-c4c(-n5cc(C(F)(F)F)nn5)ccc(Cl)c4F)c[n+]3[O-])c2)cc1F` (single isomer, unassigned) [Example P906], the IC50 came to 6.5 nM. In the case of `CN(CC(c1ccc(-c2c(-n3cnnn3)ccc(Cl)c2F)c[n+]1[O-])n1cc(-c2ccnc(C(F)(F)F)c2)cn1)C(=O)c1ccn(C)c(=O)c1` (single isomer, unassigned) [Example P435] it was 9.7 nM; in that of `Cn1nncc1-c1cnn([C@@H](Cc2ccc(C(F)(F)F)nc2)c2ccc(-c3c(-n4cc(Cl)nn4)ccc(Cl)c3F)c[n+]2[O-])c1` [Example P773], 4210 nM; in that of `N#Cc1cc(-c2cnn(C(CN3CCOC3=O)c3ccc(-c4c(-n5cnnn5)ccc(Cl)c4F)c[n+]3[O-])c2)ccn1` (single isomer, unassigned) [Example P439], 69.8 nM. In the case of `[O-][n+]1cc(-c2c(-n3cnnn3)ccc(Cl)c2F)ccc1C(C(O)c1ccccc1)n1cc(-c2ccnn2C(F)F)cn1` (single isomer, unassigned) [Example P716], the half-inhibitory concentration (IC50) stood at 22.1 nM. In the case of `O=C(O)C1CCN(C(=O)C2CC2CC(c2ccc(-c3c(-n4cnnn4)ccc(Cl)c3F)c[n+]2[O-])n2cc(-c3ccccc3)cn2)CC1` (stereo not shown) [Example P215], the half-inhibitory concentration (IC50) was determined as 755 nM.

Take `CC(C)C(=O)N(C)CC(c1ccc(-c2c(-n3cnnn3)ccc(Cl)c2F)c[n+]1[O-])n1cc(-c2ccnc(F)c2)cn1` (stereo not shown) [Example P418]: the IC50 amounted to 55.6 nM.

`[O-][n+]1cc(-c2c(-n3cnnn3)ccc(Cl)c2F)ccc1[C@@H](Cc1nccs1)n1cc(-c2ccnn2C(F)F)cn1` [Example P718]: the concentration for half-maximal inhibition (IC50) is 11.1 nM.

Take `O=C(c1cnn(CC(c2ccc(-c3c(-n4cnnn4)ccc(Cl)c3F)c[n+]2[O-])n2cc(-c3ccnc(C(F)(F)F)c3)cn2)c1)N1CCCCC1` (single isomer, unassigned) [Example P411]: the 50% inhibitory concentration (IC50) turned out to be 16 nM. As for `COC(=O)Nc1ccc(-c2cnn(C(CC3CCCCO3)c3ccc(-c4c(-n5cnnn5)ccc(Cl)c4F)c[n+]3[O-])c2)cc1` (single isomer, unassigned) [Example P115], the half-maximal inhibitory concentration (IC50) stood at 29.1 nM. In the case of `COC(=O)Nc1ccc(-c2cnn(C(CCOC(C)C)c3ccc(-c4c(-n5cnnn5)ccc(Cl)c4F)c[n+]3[O-])c2)cc1` (single isomer, unassigned) [Example P192] it was 24 nM; in that of `NC(=O)c1ccc(-c2cnn(C(Cc3ccn(C(F)F)n3)c3ccc(-c4c(-n5cc(Cl)nn5)ccc(Cl)c4F)c[n+]3[O-])c2)cc1` (single isomer, unassigned) [Example P910], 30.7 nM; in that of `Cn1cc(C[C@@H](c2ccc(-c3c(-n4cnnn4)ccc(Cl)c3F)c[n+]2[O-])n2cc(-c3ccnc(C(F)(F)F)c3)cn2)nn1` [Example P737], 818 nM. For `O=C(O)c1ccc(-c2cnn(C(c3ccc(-c4cc(Cl)ccc4-n4cnnn4)c[n+]3[O-])C(O)c3ccccc3)c2)cc1` (single isomer, unassigned) [Example P118], the IC50 worked out at 64.9 nM.
